Measured values from ChEMBL document CHEMBL5352474, “Synthesis and in vitro antileishmanial activity of alkylene-linked nitrofurantoin-triazole hybrids” (Eur J Med Chem, 2023).

Legend:
[1] = Selectivity index, ratio of IC50 for cytotoxicity against African green monkey Vero cells to IC50 for leishmanicidal activity against Leishmania major […] amastigote infected in human THP-1 cells; assay type: toxicity, cell-based; details: read-out: Ratio IC50
Leishmania donovani [2] = experiment: Antileishmanial activity against Leishmania donovani 9515 amastigote infected in human THP-1 cells assessed as static activity by measuring inhibition of parasite growth incubated for 72 hrs by resazurin dye based assay; assay type: functional, organism-based; details: Leishmania donovani, 9515, THP-1, 72 h
[3] = Selectivity index, ratio of IC50 for antileishmanial activity against Leishmania major IR-173 promastigotes to IC50 for leishmanicidal activity against Leishmania major IR-173 amastigote infected in human THP-1 cells; assay type: functional
[4] = Selectivity index, ratio of IC50 for antileishmanial activity against Leishmania major IR-173 promastigotes to IC50 for antileishmanial activity against Leishmania major IR-173 amastigote infected in human THP-1 cells assessed as static activity; assay type: functional
Leishmania major [5] = experiment: Antileishmanial activity against Leishmania major IR-173 amastigote infected in human THP-1 cells assessed as static activity by measuring inhibition of parasite growth incubated for 72 hrs by resazurin dye based assay; assay type: functional, organism-based; details: IR-173, THP-1, 72 h
Leishmania major [6] = experiment: Leishmanicidal activity against Leishmania major IR-173 amastigote infected in human THP-1 cells incubated for 72 hrs by resazurin dye based analysis; assay type: functional, organism-based; details: IR-173, THP-1, 72 h
in vitro [7] = details: monkey, Vero cells
Description: Selectivity index, ratio of IC50 for cytotoxicity against African green monkey Vero cells to IC50 for antileishmanial activity against Leishmania major IR-173 amastigote infected in human THP-1 cells assessed as static activity

Leishmania major [8] = experiment: Antileishmanial activity against Leishmania major IR-173 promastigotes assessed as inhibition of parasite growth incubated for 48 hrs by resazurin dye based assay; assay type: functional, organism-based; details: IR-173, 48 h
Leishmania donovani [9] = experiment: Leishmanicidal activity against Leishmania donovani 9515 amastigote infected in human THP-1 cells incubated for 72 hrs by resazurin dye based analysis; assay type: functional, organism-based; details: Leishmania donovani, 9515, THP-1, 72 h
in vitro [10] = details: monkey
Description: Selectivity index, ratio of IC50 for cytotoxicity against African green monkey Vero cells to IC50 for leishmanicidal activity against Leishmania donovani 9515 amastigote infected in human THP-1 cells

in vitro [11] = details: African green monkey
in vitro [12] = details: monkey, Vero cells; remark: listed apart in the source
Description: Selectivity index, ratio of IC50 for cytotoxicity against African green monkey Vero cells to IC50 for antileishmanial activity against Leishmania major IR-173 promastigote

Leishmania donovani [13] = experiment: Antileishmanial activity against Leishmania donovani 9515 promastigotes assessed as inhibition of parasite growth incubated for 48 hrs by resazurin dye based assay; assay type: functional, organism-based; details: Leishmania donovani, 9515, 48 h
in vitro [14] = details: human
[15] = Cytotoxicity against HEK293 cells assessed as inhibition of cell growth incubated for 48 hrs by resazurin dye based assay; assay type: toxicity; details: human
[16] = Selectivity index, ratio of IC50 for cytotoxicity against HEK293 cells to IC50 for antileishmanial activity against Leishmania major IR-173 promastigotes; assay type: toxicity, cell-based; details: human, read-out: Ratio IC50
[17] = Selectivity index, ratio of IC50 for cytotoxicity against African green monkey Vero cells to IC50 for antileishmanial activity against Leishmania donovani 9515 amastigote infected in human THP-1 cells assessed as static activity; assay type: toxicity, cell-based; details: read-out: Ratio IC50
[18] = Selectivity index, ratio of IC50 for antileishmanial activity against Leishmania donovani 9515 promastigotes to IC50 for antileishmanial activity against Leishmania donovani 9515 amastigote infected in human THP-1 cells assessed as static activity; assay type: functional
[19] = Selectivity index, ratio of IC50 for antileishmanial activity against Leishmania donovani 9515 promastigotes to IC50 for leishmanicidal activity against Leishmania donovani 9515 amastigote infected in human THP-1 cells; assay type: functional
in vitro [20] = details: monkey, Vero cells; remark: listed apart in the source
Description: Selectivity index, ratio of IC50 for cytotoxicity against African green monkey Vero cells to IC50 for antileishmanial activity against Leishmania donovani 9515 promastigotes

Compound	selectivity ratio [1]	IC50 (Leishmania donovani [2]) [µM]	Ratio IC50 [3]	Ratio IC50 [4]	IC50 (Leishmania major [5]) [µM]	IC50 (Leishmania major [6]) [µM]	selectivity ratio (in vitro [7])	IC50 (Leishmania major [8]) [µM]	IC50 (Leishmania donovani [9]) [µM]	selectivity ratio (in vitro [10]; Vero cells)	IC50 at 48 h (in vitro [11]; Vero cells) [µM]	selectivity ratio (in vitro [12])	IC50 (Leishmania donovani [13]) [µM]	IC50 at 48 h (in vitro [14]; THP-1 cells) [µM]	IC50 at 48 h [15] [µM]	selectivity ratio [16]	also measured
O=Cc1ccc([N+](=O)[O-])o1	4	8.56	1.3	0.87	8.35	5.6	3	7.28	2.68	9	23.2	3	> 10				
CCCCCc1cn(CCCCCN2C(=O)CN(/N=C/c3ccc([N+](=O)[O-])o3)C2=O)nn1	11	> 10	0.2		> 10	6.56		1.07	> 10		72.8		> 10	70	12	11	
COc1ccc(-c2cn(CCCN3C(=O)CN(/N=C/c4ccc([N+](=O)[O-])o4)C3=O)nn2)cc1	> 10	> 10	0.1		> 10	9.75		0.8	> 10		> 100		> 10	> 100	10.8	13	
CCCCc1cn(CCCN2C(=O)CN(/N=C/c3ccc([N+](=O)[O-])o3)C2=O)nn1		1.01		0.2	3.34	> 10	30	0.45	> 10		> 100		> 10	52.5	43.9	98	selectivity ratio [17]: 99
CCCCc1cn(CCCCCN2C(=O)CN(/N=C/c3ccc([N+](=O)[O-])o3)C2=O)nn1	6	> 10	0.1		> 10	5.69		0.44	1.68	19	31.6		> 10	> 100	> 100	> 227	
O=C1OCCN1/N=C/c1ccc([N+](=O)[O-])o1 [FURAZOLIDONE]		4.94		0.1	5.75	> 10	17		1.68	60		270		> 100			Ratio IC50 [18]: 0.1; Ratio IC50 [19]: 0.2; IC50 at 48 h (in vitro [11]; vero): > 100 µM; selectivity ratio (in vitro [20]): 357
O=C1CN(/N=C/c2ccc([N+](=O)[O-])o2)C(=O)N1 [NITROFURANTOIN]		> 10			> 10	> 10		> 10	3.57				> 10				IC50 at 48 h (in vitro [14]; thp-1): > 100 µM; selectivity ratio (in vitro [10]): 28; IC50 at 48 h (in vitro [11]; vero): > 100 µM
NC(=O)N/N=C/c1ccc([N+](=O)[O-])o1 [NITROFURAZONE]		4.11	0.1	0.12	2.8	5.6	36		2.7	37	> 100	54		> 100			Ratio IC50 [18]: 0.2; Ratio IC50 [19]: 0.3; selectivity ratio (in vitro [20]): 54
